In patent US20130252843A1, “METHOD OF MAKING AND USING FLUORESCENT-TAGGED NANOPARTICLES AND MICROARRAYS” (THE STATE OF OREGON ACTING BY AND THROUGH THE STATE BOARD …, priority 2010, published 2013):
“And” between values parts separate entries of the source, which are not always exact repeats. Equal entries are not always repeated. Where two headings read alike, the source gives them in different places.

Legend:
[1] = target: DBA (Dolichos Biflorus Agglutinin) (Vigna unguiculata subsp. cylindrica, UniProt P05045); settings: free glycan; cited from earlier work
[2] = target: RCA (Ricinus Communis Agglutinin I) (Ricinus communis, UniProt P06750); settings: free glycan; cited from earlier work
SBA (Soybean Agglutinin) = SBA (Soybean Agglutinin) (Glycine max, UniProt P05046); settings: free glycan; cited from earlier work
PNA [3] = target: T1, PNA (Arachis hypogaea, UniProt P02872); settings: free glycan; cited from earlier work
T1 construct: purchased Sigma-Aldrich
T1 sequence (P02872 24-273): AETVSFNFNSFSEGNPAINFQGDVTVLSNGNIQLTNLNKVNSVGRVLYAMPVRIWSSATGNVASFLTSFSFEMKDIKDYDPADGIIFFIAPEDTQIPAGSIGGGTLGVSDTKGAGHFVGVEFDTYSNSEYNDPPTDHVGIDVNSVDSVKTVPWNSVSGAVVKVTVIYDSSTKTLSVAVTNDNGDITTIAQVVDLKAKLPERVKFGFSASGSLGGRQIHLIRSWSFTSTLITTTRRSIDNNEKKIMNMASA

ConA-FSNPs = target: T2, ConA-FSNPs (Canavalia ensiformis, UniProt P02866); assay: Carbohydrate microarray incubated with ConA-FSNPs, fluorescence imaging; assay type: binding; settings: PS coating; ConA-FSNPs 0.5 mg/ml
T2 construct: purchased Sigma-Aldrich Type IV
Procedure: This example concerns the fabrication of carbohydrate microarrays. […] The slides were then reacted with PAAm-4-PFPA solution at 50° C. for 5 hours, and sonicated twice in H2O for 5 minutes each time. Solutions of carbohydrates were prepared in H2O. […] The slides were dried under oil pump for 1 hour. A solution of PS or PEO in CHCl3 (5 mg/ml) was spinning-coated on the slides. The Slides were then covered with a 280-nm long-path optical filter (WG-280, Schott Glass), irradiated with a 450-W medium pressure Hg lamp (Hanovia) for 9 min, sonicated 5 min in CHCl3 and 5 minutes in H2O.
This example concerns microarray assay and fluorescence imaging. Carbohydrate microarrays were incubated in a 0.5 mg/ml solution of ConA-FSNPs in HEPES (pH 7.5, 1 mM CaCl2, 1 mM MnCl2) for 1 hour, rinsed with HEPES buffer 3 times and dried. The slides were scanned using a Genepix 4000B microarray scanner at excitation of 532 nm. Image analysis was carried out with Axon Genepix Pro 5.1 analysis software (Molecular Devices Corporation, Union City, Calif.).
FIG. 52 provides the fluorescence images of carbohydrate microarrays with PS or PEO coating incubated with ConA-FSNPs at 0.5 mg/ml. […] However, for carbohydrate microarrays having a PEO coating, the signal from those “high-intensity” carbohydrate targets was negative (FIG. 53).

[4] = target: blindly prepared lectins (U1-U7) (Canavalia ensiformis, UniProt P02866); assay type: binding; set-up: unit not given here
Procedure: (§1) The unspecific binding sites of Sugar coupled Au-PFPA was inhibited by the addition of BSA (3% BSA, 0.2% Tween in PBS buffer pH 7). The 1,500 μL of sugar-coupled Au-PFPA was centrifuged at 9,000 rpm for 8 minutes and was redissolved in a PBS buffer with 3% BSA (0.2% Tween). The volume was made up to 900 μL. The resultant solution was incubated at room temperature with gentle shaking for 1 hour. The BSA blocked Au-PFPA-sugar nanoparticle was centrifuged at 10,000 rpm for 6 minutes and the excess BSA was removed. To a volume of 1,500 μL solution 10 mg/mL lectin (Con A—Concanavalin A, Canavalia ensiformis jack bean protein, SBA—soybean agglutinin, Glycine max and PNA—Peanut Agglutinin, Arachis hypogaea all purchased from Sigma Aldrich) was introduced the resultant solution was incubated at room temperature while gently shaking.
(§2) To test the training matrix and its strength to identify individual lectins, seven blindly prepared lectins (U1-U7) were used as test samples. The procedure for each test sample is the same as that used for the known samples used in the training matrix. The final SPR shift (Table 14) was used in the training matrix (Table 10) for prediction.

[5] = target: blindly prepared lectins (U1-U7) (Glycine max, UniProt P05046); assay type: binding; set-up: unit not given here
Procedure: as §1, §2

[6] = target: blindly prepared lectins (U1-U7) (Arachis hypogaea, UniProt P02872); assay type: binding; set-up: unit not given here; settings: unknown protein u5 (predicted class PNA)
Procedure: as §1, §2

SBA = target: T3, SBA (Glycine max, UniProt P05046); assay: Protein bio assay, SPR shift of sugar coupled Au-PFPA nanoparticles with lectin; assay type: binding; set-up: unit: nm; settings: replicates
T3 construct: purchased Sigma-Aldrich
From the text: (§3) In other particular embodiments, the interactions between one or more targets and one or more PHPA-derived nanoparticle probes can be measured using absorbance spectroscopy. Particular embodiments concern using surface plasmon resonance. In these embodiments, both the λmax produced before the PHPA-derived nanoparticle probe interacts with the target and the λmax produced after the PHPA-derived nanoparticle probe interacts with the target are detected. The change in λmax provides a numerical number that can be used in further statistical analysis.
as §1
(§4) A training matrix was created using three lectins (Con A, SBA and PNA) and four types of sugar-bound Au-PFPA nanoparticles. Each assay was repeated three times, providing a 3×4×3 training matrix (Table 10). The factor scores (Zi from equation (1) or Fi) calculated for the training matrix from XLSTAT® were F1=98.10% and F2=1.90%.
(§5) A study was also done to identify different lectins using specific binding interaction between lectins and sugars (Wang, X.; Ramstrom, O.; Yan, M. J. Mat. Chem. 2009, 19, 8944-8949). The lectins used in the study were Con A, SBA, PNA and GSII. The sugars used were D-Mannose, D-Glucose, D-Galactose, α-1,4-mannobiose, α-1,3-galactobiose and N-acetyl-D-glucosamine. These sugars are known to have specific binding to lectins (Jurs, P. Science 1986, 232, 1219-1224). The training matrix was created as four lectins×six sugars×five replicates (Table 12). […] The Wilk's lamda (A) value for the training set was 0.000. […] The 95% confidence ellipses show clear spatial separation, and no overlap between the ellipses is visible. Unlike the weak binding interactions studied in before using non-specific binding sugars, the strong binding sugars show very good class separation.

PNA [7] = target: T1, PNA; assay: as above; assay type: binding; set-up: unit: nm; settings: replicates
From the text: as §3, §1, §4, §5

Con A [8] = target: T4, Con A (Canavalia ensiformis, UniProt P02866); assay: as above; assay type: binding; set-up: unit: nm; settings: replicates
T4 construct: purchased Sigma-Aldrich Type IV (catalogue number not given)
From the text: as §3
as §1, with “shaking. […]” for “shaking.”

CVN-M = CVN-M (Nostoc ellipsosporum, UniProt P81180, E41A/N42A/T57A/R76A/Q78G)
Con A [9] = target: T4, Con A
CVN-Q = CVN-Q (Nostoc ellipsosporum, UniProt P81180, Q50C)
[10] = UV irradiation photostability; assay type: physicochemical; settings: 450-W medium-pressure Hg lamp, 10 minutes; of the original value
Procedure: To confirm that the entrapped FITC would withstand the UV irradiation conditions used for a subsequent photocoupling reaction, a solution containing FITC-doped SNPs was irradiated with a 450-W medium-pressure Hg lamp for 10 minutes. […] See, FIG. 6. On the other hand, when the […] was irradiated under the same conditions, the fluorescent intensity was reduced to about 50% of the original value. See, FIG. 7.

[11] = target: RCA, Ricinus Communis Agglutinin I; settings: cited from earlier work
PNA, Peanut Agglutinin = target: T5, PNA, Peanut Agglutinin (Arachis hypogaea, UniProt P02872); settings: cited from earlier work
T5 construct: purchased Sigma-Aldrich

[12] = unknown protein u3 (predicted class Con A)
[13] = unknown protein u4 (predicted class Con A)
[14] = unknown protein u1 (predicted class SBA)
[15] = unknown protein u2 (predicted class SBA)
[16] = unknown protein u6 (predicted class SBA)
[17] = unknown protein u7 (predicted class SBA)
[18] = free glycan; cited from earlier work
[19] = free glycan, solution; cited from earlier work
[20] = Domain A; cited from earlier work
[21] = Domain B; cited from earlier work

Compound: CC(=O)N[C@H]1C(O)O[C@H](CO)[C@H](O)[C@@H]1O (stereo partly drawn) [GalNAc]
- Association constant Ka with DBA [1]: 4200 M⁻¹
- Association constant Ka with RCA [2]: 48400 M⁻¹
- Association constant Ka with SBA (SBA (Soybean Agglutinin)): 1.51e+06 M⁻¹
- Association constant Ka with PNA (PNA [3]): 2430 M⁻¹

Compound: OC[C@H]1O[C@@H](O[C@H]2[C@H](O)[C@@H](O)[C@@H](O)O[C@@H]2CO)[C@H](O)[C@@H](O)[C@H]1O [Lac]
- labeling intensity by ConA-FSNPs on carbohydrate microarray (ConA-FSNPs): slightly less

Compound: Lactose
- Unknown SPR shift, weak binders [4, 12]: 5.5
- Unknown SPR shift, weak binders [4, 13]: 5.7
- Unknown SPR shift, weak binders [5, 14]: 1.6
- Unknown SPR shift, weak binders [5, 15]: 1.1
- Unknown SPR shift, weak binders [5, 16]: 1.6
- Unknown SPR shift, weak binders [5, 17]: 1.1
- Unknown SPR shift, weak binders [6]: 2.5
- SPR shift, training matrix (SBA): 1.5 and 3.7 and 1.1
- SPR shift, training matrix (PNA [7]): 3.7 and 2 and 2.4
- SPR shift, training matrix (Con A [8]): 6.2 and 5.1 and 7.9

Compound: OC[C@H]1O[C@H](O[C@@H]2C(O)O[C@H](CO)[C@@H](O)[C@@H]2O)[C@@H](O)[C@@H](O)[C@@H]1O (stereo partly drawn) [Compound 2α-Man2, 2-O-α-D-Mannopyranosyl-D-mannopyranose]
- labeling intensity by ConA-FSNPs on carbohydrate microarray (ConA-FSNPs): most intensely
- Association constant Ka with CVN-M (CVN-M; [18]): 1320 M⁻¹
- Kd (CVN-M; read-out: dissociation constant of the free ligand with CVN-M; data in brackets, free ligand; cited from earlier work): 757 µM
- Association constant Ka with Con A (Con A [9]; [19]): 41700 M⁻¹
- Kd (Con A [9]; read-out: dissociation constant of the free ligand with Con A; data in brackets, free ligand; cited from earlier work): 24 µM
- Association constant Ka with CVN-Q (CVN-Q; [20]): 1.43 × 10^3 (Domain A); M^−1
- Association constant Ka with CVN-Q (CVN-Q; [21]): 1.56 × 10^4 (Domain B) M^−1
- Kd (CVN-Q; read-out: dissociation constant of the free ligand with CVN-Q; data in brackets, free ligand; cited from earlier work): 89.8 µM

Compound: O=C(O)c1cc(N=C=S)ccc1-c1c2ccc(=O)cc-2oc2cc(O)ccc12 [FITC, fluorescein isothiocyanate]
- fluorescence intensity after UV irradiation [10]: about 50%

Compound: Arabinose
- Unknown SPR shift, weak binders [4, 12]: 1.1
- Unknown SPR shift, weak binders [4, 13]: 1
- Unknown SPR shift, weak binders [5, 14]: 4.5
- Unknown SPR shift, weak binders [5, 15]: 5
- Unknown SPR shift, weak binders [5, 16]: 4.5
- Unknown SPR shift, weak binders [5, 17]: 4.5
- Unknown SPR shift, weak binders [6]: 1.9
- SPR shift, training matrix (SBA): 5.1 and 5.9 and 4.5
- SPR shift, training matrix (PNA [7]): 2.1 and 1.8 and 1.6
- SPR shift, training matrix (Con A [8]): 1.9 and 0.8 and 1.1

Compound: OC[C@H]1OC(O)[C@H](O)[C@@H](O)[C@H]1O (stereo partly drawn) [Gal, D-(+)-galactose]
- Ka [11]: ~10^3 M^−1
- Ka (PNA, Peanut Agglutinin): ~10^3 M^−1

Compound: O=C[C@H](O)[C@@H](O)[C@H](O[C@@H]1O[C@H](CO)[C@@H](O)[C@H](O)[C@H]1O)[C@H](O)CO [Cellobiose]
- Unknown SPR shift, weak binders [5, 14]: 2.1
- Unknown SPR shift, weak binders [5, 17]: 2.1

Compound: OC[C@H]1O[C@H](O[C@@H]2[C@@H](O[C@@H]3C(O)O[C@H](CO)[C@@H](O)[C@@H]3O)O[C@H](CO)[C@@H](O)[C@@H]2O)[C@@H](O)[C@@H](O)[C@@H]1O (stereo partly drawn) [2α, 2α-Man3, α-1,2-α-1,2-mannotriose]
- Kd (CVN-M; data in brackets, free ligand; read-out: dissociation constant of the free ligand with CVN-M; cited from earlier work): 3.4 µM
- Association constant Ka with CVN-M (CVN-M; [18]): 294000 M⁻¹
- Association constant Ka with CVN-M (CVN-M; free glycan; listed as 2α,2α-Man3; cited from earlier work): 294000 M⁻¹
- Kd (Con A [9]; data in brackets, free ligand; read-out: dissociation constant of the free ligand with Con A; cited from earlier work): 2.97 µM
- Association constant Ka with Con A (Con A [9]; [19]): 379000 M⁻¹
- Association constant Ka with Con A (Con A [9]; free glycan, solution; listed as 2α,2α-Man3; cited from earlier work): 379000 M⁻¹
- Association constant Ka with CVN-Q (CVN-Q; [20]): 2.94 × 10^5 (Domain A); M^−1
- Association constant Ka with CVN-Q (CVN-Q; [21]): 2.33 × 10^4 (Domain B) M^−1
- Kd (CVN-Q; data in brackets, free ligand; read-out: dissociation constant of the free ligand with CVN-Q; cited from earlier work): 15.5 µM

Compound: Dextran
- labeling intensity by ConA-FSNPs on carbohydrate microarray (ConA-FSNPs): slightly less
